How the values were obtained:
[1] = target: T1, human recombinant ADAMTS1 expressed in the murine myeloma cell line (R&D Systems) (Homo sapiens, UniProt Q9UHI8); test: FRET peptide cleavage assay (Abz/Dnp), dose-response; type: biochemical
T1 construct: commercial recombinant protein from R&D Systems, murine myeloma cell line
T1 sequence (Q9UHI8 253-967): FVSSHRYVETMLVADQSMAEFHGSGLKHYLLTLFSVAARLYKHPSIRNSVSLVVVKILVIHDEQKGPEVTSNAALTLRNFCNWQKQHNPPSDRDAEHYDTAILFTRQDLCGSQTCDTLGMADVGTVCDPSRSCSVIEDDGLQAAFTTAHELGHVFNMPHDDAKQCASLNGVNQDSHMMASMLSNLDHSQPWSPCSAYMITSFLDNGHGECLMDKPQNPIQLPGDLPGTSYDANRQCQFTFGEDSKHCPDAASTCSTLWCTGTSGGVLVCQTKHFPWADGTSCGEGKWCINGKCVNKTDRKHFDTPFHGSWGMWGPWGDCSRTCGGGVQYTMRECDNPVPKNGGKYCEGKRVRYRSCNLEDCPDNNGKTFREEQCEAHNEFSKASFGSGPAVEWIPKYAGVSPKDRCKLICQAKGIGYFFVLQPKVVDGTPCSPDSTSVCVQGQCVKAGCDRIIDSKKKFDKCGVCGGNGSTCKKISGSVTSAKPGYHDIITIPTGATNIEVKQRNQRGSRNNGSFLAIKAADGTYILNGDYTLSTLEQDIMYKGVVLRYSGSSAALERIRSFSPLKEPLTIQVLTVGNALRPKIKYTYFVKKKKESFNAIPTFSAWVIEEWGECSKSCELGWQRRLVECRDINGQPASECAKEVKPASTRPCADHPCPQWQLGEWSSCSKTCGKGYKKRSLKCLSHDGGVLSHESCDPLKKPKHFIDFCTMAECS
Source text: FRET peptide cleavage assay (Abz/Dnp), dose-response on human recombinant ADAMTS1 expressed in the murine myeloma cell line (R&D Systems)

[2] = target: T2, recombinant ADAMTS1 (p65-ADAMTS1) expressed in E. coli (Homo sapiens, UniProt Q9UHI8); test: as above; type: biochemical
T2 construct: 1452 nt cDNA fragment (nt 1206-2657, 484 codons; propeptide and C-terminal part absent; primer starts at KRFVSS, ends ISGSVTSA); pET32a Trx fusion, Trx removed by enterokinase, C-terminal His tag; E. coli BL21(DE3); heparin-sepharose purified; fusion about 70 kDa
T2 sequence (Q9UHI8 251-734): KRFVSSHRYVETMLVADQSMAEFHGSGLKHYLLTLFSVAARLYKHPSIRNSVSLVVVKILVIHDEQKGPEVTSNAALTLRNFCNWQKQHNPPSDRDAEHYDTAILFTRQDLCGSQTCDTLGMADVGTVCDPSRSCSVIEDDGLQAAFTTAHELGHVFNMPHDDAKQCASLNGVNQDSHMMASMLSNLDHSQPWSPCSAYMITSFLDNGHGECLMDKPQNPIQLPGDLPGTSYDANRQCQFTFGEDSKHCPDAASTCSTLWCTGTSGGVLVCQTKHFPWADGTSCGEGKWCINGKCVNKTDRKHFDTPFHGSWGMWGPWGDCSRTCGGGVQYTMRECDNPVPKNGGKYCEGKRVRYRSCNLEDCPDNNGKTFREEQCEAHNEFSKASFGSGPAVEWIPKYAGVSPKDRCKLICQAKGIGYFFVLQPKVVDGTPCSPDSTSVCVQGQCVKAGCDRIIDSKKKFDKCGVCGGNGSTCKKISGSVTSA
Source text: FRET peptide cleavage assay (Abz/Dnp), dose-response on recombinant ADAMTS1 (p65-ADAMTS1) expressed in E. coli

Structure (SMILES): CC1=C[C@H](c2cc3cc(-c4cc(O)cc(O)c4)oc3cc2O)[C@@H](C(=O)c2ccc(O)cc2O)[C@H](c2ccc(O)cc2O)C1 [J14715, albafuran C]
- IC50 [1]: 10.7 ± 0.6 µM
- IC50 [2]: 11.9 ± 0.7 µM

Structure (SMILES): CC1=C[C@H](c2cc(/C=C/c3cc(O)cc(O)c3)c(O)cc2O)[C@@H](C(=O)c2ccc(O)cc2O)[C@H](c2ccc(O)cc2O)C1 [J14713, kuwanon P]
- IC50 [1]: 5.5 ± 0.4 µM
- IC50 [2]: 7.6 ± 0.6 µM

From article PMC6264766, “Fluorescence Resonance Energy Transfer Assay for High-Throughput Screening of ADAMTS1 Inhibitors” (Molecules, 2011)
